Experimental data reported in patent US9951102B2, “Peptide inhibitor of Nox1 NADPH oxidase” (University of Iowa Research Foundation, priority 2014, dated 2018).
pKd: −log10 of the molar value. Where no end group is shown, it is not given here.

Legend:
[1] = biological target: T1, NoxA1 activation domain (AD) peptide LEPMDFLGKAKVV (Homo sapiens, UniProt Q86UR1); test: Isothermal titration calorimetry peptide interaction; assay type: binding; conditions: ITC, 25° C., pH 7.4, n=3 independent experiments, ± standard deviation; read-out: Affinity (Kd) for the interaction with NoxA1 AD peptide
T1 construct: purchased ProImmune
Description: The affinity of the interaction between non-phosphorylated and phosphorylated Nox1 and NoxA1 was determined by isothermal titration calorimetry (ITC). Phosphorylated or non-phosphorylated peptides corresponding to amino acids KLKTQKIYF (SEQ ID NO:9) of Nox1 and a peptide corresponding to amino acids LEPMDFLGKAKVV (SEQ ID NO:10) of NoxA1 peptides were purchased from ProImmune. The peptides were resuspended in 20 mM Na2HPO4, 100 mM […], pH 7.4 to a final concentration of 800 μM (Nox1) and 20 μM (NoxA1). The peptides were degassed and ITC measurements recorded using a MicroCal VP-ITC System (GE Healthcare). 21 injections of Nox1 peptides into NoxA1 peptide were used, with 240 s spacing between events. The chamber was kept under constant stirring at 350 rpm and all experiments were performed at 25° C. […] The constant heat of dilution, as determined by the average of the last 3-5 injections, was subtracted and the data are analyzed using the single site binding model provided in the ITC analysis package. The values for affinity and stoichiometry from three experiments were averaged and shown±standard deviation.

[2] = system: NADPH oxidase activity in VSMC membrane fractions; test: ROS detection by lucigenin-enhanced chemiluminescence; assay type: cell-based, rat; conditions: 30 minute pre-incubation, 100 nM DPI or 100 μM CalC, TNF-α 10 ng/mL 10 minutes
Description: A7r5 rat aortic smooth muscle cells were seeded at 75% confluence in 10% FBS medium, infected with AdNox1GFP for 48 hours, serum-starved in 0.2% FBS medium for 24 hours. Cells were then subjected to a 30 minute pre-incubation with 100 nM DPI or 100 μM CalC or DMSO, then treated with 10 ng/mL TNF-α for 10 minutes, washed three times in cold PBS, and homogenized in Homogenization Buffer (0.25 M sucrose, 10 mM triethanolamine, 4% protease inhibitor cocktail, 0.1 M EDTA, pH 7.4) with a Tissue Tearor. Lucigenin was then added to a final concentration of 5 μM. Samples were then analyzed by a FB12 Chemiluminometer every 10 seconds for 5 minutes. Then NADPH was added to a final concentration of 100 μM and readings were taken for another 5 m. Average baseline value was subtracted from the average NADPH-stimulated value.

[3] = system: Nox1 phosphorylation in A7r5 rat aortic VSMCs; test: TNF-α-stimulated Nox1 phosphorylation, anti-p22phox IP / anti-STY Western blot, A7r5 VSMCs; assay type: cell-based; conditions: CalC pretreatment 100 nM, TNF-α 10 ng/mL 10 minutes
Description: Equal volumes of samples were pre-cleared with Protein G Dynabeads (10 μL/1.5 mg protein in lysate) for 30 minutes at 4° C., end-over-end rotation, followed by a quick spin at high speed, then placed on a magnetic rack for 1 minute. SNT was removed to a new tube on ice. The p22^phox/Nox1 complex was immunoprecipitated using anti-p22^phox antibody C-17 (1 μg/500 μg protein in lysate) and rotated for 45 minutes at 4° C. (Hanna et al., 2004). Next, 20 μL Protein G Dynabeads was added to each sample and rotated for 20 minutes at 4° C., followed by a quick spin at high speed, then placed on a magnetic rack 1 m. SNT was moved to a new tube on ice and frozen for later analysis. The Dynabead pellet was washed three times with 200 μL NP40 buffer, followed by addition of 15 μL twice with sample buffer (4% SDS, 20% glycerol, 10% 2-mercaptoethanol, 0.004% bromphenol blue, 0.125 M Tris HCl, pH 6.8). […] Samples were then analyzed by WB.
One quarter volume of 5× sample buffer (6 g SDS, 40% glycerol, 30% 2-mercaptoethanol, 383.3 mg dithiothreitol, 372 mg EDTA, 378.3 mg Tris, 50 mg bromphenol blue in 50 ml ddH2O, pH 6.8) was added to lysates. […] Phosphorylation of Nox1 residues was determined utilizing a phospho-serine/threonine/tyrosine (p-STY) antibody that reacts with these residues only under phosphorylated conditions (Zhang et al., 2010, Chen et al., 2006). […]

[4] = system: TNF-α-induced Nox1-dependent ROS production in WT VSMCs; test: ROS detection by CM-H2DCF fluorescence in VSMCs; assay type: cell-based, mouse; conditions: CalC pretreatment, TNF-α 10 ng/mL 30 minutes
Description: C57 WT or Nox1^−/y VSMCs were seeded on glass chamber slides at 75% confluence, serum-starved in cell culture medium containing no FBS for 24 h, washed in phenol red-free DMEM, and incubated in 10 μM CM-H2DCFDA for 30 m, pretreated with CalC or DMSO, and treated with 10 ng/mL TNF-α for 30 minutes. The cells were then washed 3×100 μL cold PBS, fixed with 2% paraformaldehyde for 15 minutes, washed twice with PBS, incubated in 1 μM To-Pro-3 for 5 minutes in dark, and washed twice with PBS. The chambers were removed and cells were mounted in Vectashield and imaged by confocal microscopy.
500 μL Opti-MEM was added to a 60 mm gelatin-coated cell culture plate. To this siPKC-β or siControl was added (final concentration 200 nM), plus 12 μL RNAiMax. Plates were rocked and incubated for 20 minutes. Cells were detached by use of trypsin, which was quenched in 10% FBS containing no antibiotics, centrifuged at 500 g for 5 minutes, resuspended in 5 mL 10% FBS without antibiotics and counted. Cells were added to plate for a seeding density of 75%, and medium was added to a final volume of 3 mL. Cells were incubated for 5 hours at 37° C., then medium was changed to 10% FBS. The next day, cells were serum starved in medium containing no FBS for 24 hours. Cells were then prepared for analysis by WB, DCF fluorescence or migration assay.

WT VSMC migration = test: Transwell migration assay to TNF-α; assay type: cell-based, mouse; conditions: CalC pretreatment 30 minutes, 5 hours migration
Description: WT or Nox1^−/y C57 mouse aortic VSMCs were pretreated with CalC or DMSO (vehicle) for 30 minutes, washed once with PBS, and cells were detached with trypsin, which was quenched with trypsin inhibitor. Cells were transferred to a conical tube, centrifuged at 500 g for 5 minutes. The SNT was aspirated, and cells were resuspended in 125 μL cell culture medium containing no FBS. Cell counts were obtained on a Beckman Z1 Coulter Particle Counter. Cells suspensions were diluted to a concentration of 1,000 cells/μL. 50 μL of the cell suspension was added to the upper chamber of a Costar Transwell Permeable Support (8.0 μm polycarbonate membrane, 6.5 mm insert). 500 μl medium containing no FBS with or without TNF-α was added to the lower chamber. […] Cells were fixed in 4% paraformaldehyde, membranes were removed from support with a scalpel and mounted in Vectashield plus DAPI, cover-slipped and five random fields from each membrane were imaged at 20× and the number of cells migrated to the bottom of the Transwell was counted. […]
500 μL Opti-MEM was added to a 60 mm gelatin-coated cell culture plate. […] Cells were detached by use of trypsin, which was quenched in 10% FBS containing no antibiotics, centrifuged at 500 g for 5 minutes, resuspended in 5 mL 10% FBS without antibiotics and counted. […] Cells were then prepared for analysis by WB, DCF fluorescence or migration assay.

Molecule | pKd [1] | TNF-α-primed NADPH oxidase activity (lucigenin-enhanced chemiluminescence) [2] | TNF-α-stimulated Nox1 phosphorylation [3] | Nox1-dependent ROS production (CM-H2DCF fluorescence) [4] | Migration of WT VSMCs to TNF-α (WT VSMC migration)
KLKTQKIYF [Nox1 peptide, KLKTQKIYF] | < 4.00 |  |  |  | 
[Cl-].c1ccc2c(c1)[I+]c1ccccc1-2 [DPI, Diphenyleneiodoium chloride] |  | completely abolished |  |  | 
COc1c(C[C@@H](C)OC(=O)Oc2ccc(O)cc2)c2c3c(C[C@@H](C)OC(=O)c4ccccc4)c(OC)c(=O)c4c(O)cc(OC)c(c5c(OC)cc(O)c(c1=O)c52)c43 [CalC, Calphostin C] |  | completely abolished | inhibited | abrogated | blocked
